Patent EP4588485A1, “PHARMACEUTICAL COMBINATION OF FAK INHIBITOR AND TOPOISOMERASE INHIBITOR AND USE THEREOF” (Inxmed (Nanjing) Co., Ltd., priority 2022, dated 2024)

Experiments:
CT26 cells [1] = assay: Microscope observation of cell status after 48 hours of drug action; assay type: cell-based, mouse; conditions: IN10018 5 µM; for cell status observed under a microscope: Etoposide 20 µM, Fig. 6; for cell status observed under a microscope (cell death / cell viability): Teniposide 4.8 µM
Procedure: CT26 cells (Institute of Cell Biology, Chinese Academy of Sciences) were cultured with RPMI-1640 (Shanghai Basalmedia, catalog number: L210KJ, batch number: F210916) + 10% FBS (Gibco, catalog number: 10099-141c, batch number: 2158737cp), and passaged twice. When the cells were in good condition, they were placed in a 24-well plate. After 24 hours of cell spreading, four groups were set up. The first group was the control group, in which culture medium was added; the second group was IN10018 at a concentration of 5µM; the third group was Etoposide (source: MCE, classification number: 33419-42-0, batch number: 113741) with a concentration of 20 µM; and the fourth group was a combination group of IN10018 (5 µM) and Etoposide (20 µM). The drugs were mixed and cultured in a 5 % CO2 incubator at 37°C for 48 hours.
After 48 hours of drug action, the cells were observed and photographed under a microscope. The photos were saved. Then the cells were collected for flow cytometry, and the cells were washed twice with flow buffer (PBS + 2% FBS). 0.5 µl of AF647 anti-Calreticulin antibody (abcam, catalog number: ab196159, batch number: CR33676773) was added to each well, and fully mixed. The cells were incubated at 4 °C for 20 minutes in the dark. After 20 minutes, the cells were washed twice with flow buffer (PBS + 2% FBS). Cell apoptosis detection kit (Beyotime, catalog number: CL062L, batch number: 021921210811) was used. 195 µl of Annexin-V-FITC binding solution was added, and the cells were gently mixed. 5 µl of annexin-V-FITC antibody was added, and the mixture was gently mixed. 10 µl of PI dye was added and gently mixed. The mixture was incubated at room temperature in the dark for 15 minutes, and then analyzed on a flow cytometer.
After 48 hours of drug action, the cells were photographed using a microscope, then trypsinized and collected for flow cytometry staining.

[2] = day 17 after group administration, 6 mice per group; deaths due to tumor rupture
Procedure: (§1) • 1. N: number of mice in each group; • 2. Dosing volume: 10 mL/kg based on the mouse body weight. If the body weight dropped by more than 15%, the administration of the animals would be stopped; When the body weight recovered to 90%, the administration would be resumed. • 3. The Etoposide dose was increased to 6 mg/kg on the 6th day after grouping and dosing;
The formulation and any modifications of this assay protocol had been assessed and approved by the IACUC of ArrayBridge. The use and welfare of assay animals were carried out in accordance with AAALAC regulations. The health status and mortality of animals were monitored daily, with routine checks including observation of tumor growth and the impact of drug treatment on the animals' daily behavior, such as activity, food and water intake (estimated by visual inspection), changes in body weight, physical signs, or any other abnormalities. The number of animal deaths and side effects in each group were recorded based on the number of animals in each group.
The assay was carried out according to the dosing regimen. During the assay, the animals' activities such as eating and drinking were observed every day, and the body weight of the animals was recorded three times a week. […]

MDA-MB-231 cells [3] = assay: Calreticulin release and exposure by flow cytometry after FAK siRNA silencing plus topoisomerase inhibitor; assay type: cell-based; conditions: FAK siRNA 50 nM for 24 hours, then 2 µM drug for 48 hours; compared with control siRNA; Fig. 2 / Fig. 4
Procedure: The siRNA technology was used in the in vitro assay to reduce the expression level of FAK, and combined with Etoposide for 48 hours. Flow cytometry was used to detect the expression of Calreticulin, the main target of ICD.
MDA-MB-231 cells were transfected with control siRNA or FAK siRNA at a final concentration of 50 nM, respectively. After the transfection for 24 hours, the cells were treated with 2 µM of Etoposide for 48 hours. The cells were fluorescent stained with Calreticulin antibody, and the staining results were analyzed by flow cytometry.
The siRNA technology was used in the in vitro assay to reduce the expression level of FAK, and combined with Teniposide for 48 hours. Flow cytometry was used to detect the expression of Calreticulin, the main target of ICD.
MDA-MB-231 cells were transfected with control siRNA or FAK siRNA at a final concentration of 50 nM, respectively. After the transfection for 24 hours, the cells were treated with 2 µM Teniposide for 48 hours. The cells were fluorescent stained with Calreticulin antibody, and the staining results were analyzed by flow cytometry.

MDA-MB-231 cells [4] = assay: Apoptosis by Annexin V flow cytometry after FAK siRNA silencing plus topoisomerase inhibitor; assay type: cell-based; conditions: FAK siRNA 50 nM for 24 hours, then 2 µM drug for 48 hours; FAK silencing group compared with control siRNA group; Fig. 1 / Fig. 3
Procedure: The siRNA technology was used in the in vitro assay to reduce the expression level of FAK, and combined with Etoposide for 48 hours; flow cytometry was used to detect apoptosis in control and FAK silenced cells.
Assay antibodies: recombinant Alexa Fluor® 647 fluorescent Anti-Calreticulin antibody (Abcam, ab196159), Annexin V apoptosis detection kit (Invitrogen, A35110).
MDA-MB-231 cells were transfected with control siRNA or FAK siRNA at a final concentration of 50 nM, respectively. After the transfection for 24 hours, the cells were treated with 2 µM of Etoposide for 48 hours. The cells were stained using Annexin V kit and detected by flow cytometry. The early and late apoptotic values were counted, compared with those of the DMSO control group, and plotted using Graphpad 8.0.
The siRNA technology was used in the in vitro assays to reduce the expression level of FAK, and combined with Teniposide for 48 hours; flow cytometry was used to detect apoptosis in control and FAK silenced cells. […]
MDA-MB-231 cells were transfected with control siRNA or FAK siRNA at a final concentration of 50 nM, respectively. […] The cells were stained using Annexin V kit and detected by flow cytometry. The early and late apoptosis values were counted, compared with those of the DMSO control group, and plotted using Graphpad 8.0.

[5] = tested on: MC38 mouse colorectal cancer cells; assay: In vivo antitumor efficacy in subcutaneous allograft tumor model; design: species or system C57BL/6 mice
Procedure: Table 12: Animal groups and dosing regimens for in vivo efficacy assays
as §1
Colorectal cancer cells MC38 (from Nanjing Cobioer Biotechnology Co., Ltd., article number: CBP60825) were maintained and passaged by InxMed (Nanjing) Co., Ltd. Cells were cultured in monolayer in vitro under the following conditions: DMEM medium with 10% fetal bovine serum, in a 37°C, 5% CO2 incubator. Cells were routinely digested and passaged two to three times a week using trypsin-EDTA. When the cells were in the exponential growth phase and the adherent confluence reached 80%-90%, the cells were harvested, counted, and then inoculated.
0.1 mL of cell suspension containing 2×10^5 cells was subcutaneously inoculated on the right back of each mouse. When the tumor volume reached about 50 mm^3 (9th day after cell inoculation), the mice were randomly divided into groups and administered according to the tumor volume. Table 13: Test substance and control solvent preparation
The assay index was to examine whether the tumor growth was inhibited, delayed, or cured. Tumor diameters were measured three times a week using calipers. The tumor volume was calculated using the formula: V = 0.5 × a × b^2, where a and b represent the long and short diameters of the tumor, respectively.
The anti-tumor efficacy of the compound was evaluated by TGI (%), which reflected the tumor growth inhibition rate. Based on the tumor volume on the first day after grouping, the tumor growth inhibition rate TGI (%) was calculated according to the following formula: TGI (%) = [1 - (average tumor volume of an administration group - average tumor volume of the administration group at the beginning of treatment) / (average tumor volume of the solvent control group - average tumor volume of the solvent control group at the beginning of treatment)] × 100%.
Statistical analysis was based on tumor volume at the end of the assay using Prism Graphpad software. Comparisons between multiple groups were analyzed using Two-way ANOVA and Fisher's LSD test. A P-value of less than 0.05 was considered statistically significant.
After cell inoculation, tumor growth was observed every day. On the 9th day after inoculation, mice were grouped based on tumor volume. The average tumor volume at enrollment was approximately 50 mm^3.

CT26 cells [6] = assay: CCK-8 cell proliferation inhibition; assay type: cell-based; conditions: Mus musculus, single drug, 72 hours, CCK8, OD450
Procedure: CT26 cells were cultured with RPMI-1640 (Shanghai Basalmedia, catalog number: L210KJ, batch number: F210916) + 10% FBS (Gibco, catalog number: 10099-141c, batch number: 2158737cp), and passaged twice. When the cells were in good condition, they were placed in a 96-well plate, 3000 cells/well. […] 10 drug concentrations were set. The first concentration was 30 µM, which was serially diluted 5-fold, and the last one was the control, with the drug concentration of 0. Each drug concentration was run in triplicate. At the same time, another group of cells was established with the same drug concentration as that in the above method.
10 µl of CCK8 detection reagent (Cellorlab, classification number: CX001M, batch number: 2571100) was added to each well, and the plate was incubated in a 5% CO2 incubator at 37 °C for 2-4 hours. Then the plate was read using microplate reader OD450 (chemiluminescence method). […]
CT26 cells were digested with trypsin, and then the cells were collected and counted. […]
After 72 hours of drug action, 10 µL of CCK-8 detection reagent was added to each well of the cell plate using a multi-channel pipette, and then the cell plate was incubated in a 37 °C, 5% CO2 incubator for another 4 hours. Finally, the absorbance of each well at 450 nm was measured using an ELISA reader. […]

Row | SMILES | cell status observed under a microscope (CT26 cells [1]) | cell status observed under a microscope (cell death / cell viability) (CT26 cells [1]) | Animal Survival [2] | release and exposure of Calreticulin (MDA-MB-231 cells [3]) | apoptosis (early and late apoptotic values) (MDA-MB-231 cells [4]) | Tumor volume on day 17 ([5]; 17th day after group administration, Etoposide 3 mg/kg PO QD (6 mg/kg from the 6th day), IN10018 25 mg/kg PO QD, PD-L1 antibody 5 mg/kg i.p. BIW, mean ± SD) | Tumor volume on day 0 ([5]; baseline on the day of grouping, mean ± SD, 6 mice per group) | TGI ([5]; day 17 vs. control group, Etoposide 3 mg/kg PO QD (6 mg/kg from the 6th day), IN10018 25 mg/kg PO QD, PD-L1 antibody 5 mg/kg i.p. BIW) | inhibitory effect on tumor growth ([5]; in words, compared with the blank control group, whole dosing cycle, Fig. 11) | IC50 (CT26 cells [6])
1 | COc1cc([C@@H]2c3cc4c(cc3[C@@H](O[C@@H]3O[C@@H]5CO[C@@H](C)O[C@H]5[C@H](O)[C@H]3O)[C@H]3COC(=O)[C@H]23)OCO4)cc(OC)c1O [Etoposide] | poor | obvious | 5/6 | significantly enhanced | significantly enhanced | 2420.2±1377.3 mm^3 | 48.2 ± 10.2 mm^3 | 9.5% | no inhibitory effect | 24.4 µM
2 | COc1cc(C(=O)NC2CCN(C)CC2)c(F)cc1Nc1ncc(C(F)(F)F)c(Oc2cccc3c2C(=O)N(C)C3)n1 [IN10018] | good | better |  |  |  |  |  |  |  | 
3 | COc1cc([C@@H]2c3cc4c(cc3[C@@H](O[C@@H]3O[C@@H]5CO[C@@H](c6cccs6)O[C@H]5[C@H](O)[C@H]3O)[C@H]3COC(=O)[C@H]23)OCO4)cc(OC)c1O [Teniposide] |  |  |  | significantly enhanced | significantly enhanced |  |  |  |  | 0.818 µM
